We go through seven molecules from paper PMC8151276, “An Integrated Approach toward NanoBRET Tracers for Analysis of GPCR Ligand Engagement” (Molecules, 2021).

Several values for one entry are separate records, joined by “and”; a condition that tells them apart may be missing. Equal entries are not always repeated. Where two headings read alike, the source gives them in different places.

Holding throughout (format): binding
In one assay the target is T1, TACR3 (Homo sapiens, UniProt P29371).
T1 construct: purchased Promega (in-house HiBiT-GPCR construct library, NanoBRET)
T1 sequence (P29371 1-465): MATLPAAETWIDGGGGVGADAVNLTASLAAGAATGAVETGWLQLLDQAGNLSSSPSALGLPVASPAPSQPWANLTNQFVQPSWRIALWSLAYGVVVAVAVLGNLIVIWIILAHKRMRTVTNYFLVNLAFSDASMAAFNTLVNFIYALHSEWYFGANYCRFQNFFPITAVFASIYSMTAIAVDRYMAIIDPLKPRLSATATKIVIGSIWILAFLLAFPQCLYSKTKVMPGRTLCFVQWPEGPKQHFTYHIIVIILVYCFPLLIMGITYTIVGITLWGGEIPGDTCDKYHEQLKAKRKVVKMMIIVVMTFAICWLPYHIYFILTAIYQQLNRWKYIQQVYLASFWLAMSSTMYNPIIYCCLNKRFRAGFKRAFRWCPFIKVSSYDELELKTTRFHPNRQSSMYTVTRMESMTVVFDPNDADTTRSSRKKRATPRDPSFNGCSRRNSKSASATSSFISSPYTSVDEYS
The experiment in a line: NanoBRET screen HiBiT-TACR3 in HEK293. How it is done:
(§1) Each tracer candidate was screened across the entire library of HiBiT-GPCR constructs using NanoBRET as the detection modality. As depicted in Figure 4A, the specificity of interactions was evaluated through decrease in BRET due to competitive displacement of a bound tracer by excess parental compound. Each tracer was analyzed for binding to each HiBiT-GPCR fusion in the absence and in the presence of competing parental compound. Briefly, HEK293 cells were transfected with HiBiT-GPCR constructs diluted into promoterless DNA to reduce expression and maximize translocation to the cell surface. Each tracer candidate was then screened at concentrations of 1 μM and 0.1 μM across cells expressing these fusions. Cells were treated for 1.5 h with tracer either alone or in the presence of 20 μM competing parental compound (i.e., control). BRET was measured upon addition of purified LgBiT and subsequent complementation with HiBiT genetically fused to a GPCR. The specificity of interactions was assessed through a decrease in BRET signal due to competitive displacement of the bound tracer. To further gauge the robustness of these interactions, the fold response over the control (i.e., BRETtracer/BRETcontrol) was calculated. We chose a 1.5-fold response, which translates to ≥7-fold signal over noise as the minimal threshold required to score an interaction as positive. […]. Below we highlight the screening results obtained for our exemplary fluorescent tracers based on Clozapine, Amitriptyline and AZD1283.
(§2) HiBiT-GPCR DNA constructs were diluted in 10 mM Tris pH 8 to a final concentration of 0.01 μg/μL, arrayed in 96-well plates and stored at −20 °C. For transfection, HEK293 cells were suspended in Opti-MEM (without phenol red) supplemented with 2% fetal bovine serum (Seradigm) and 100 units/mL penicillin–streptomycin (Gibco) at a final concentration of 220,000 cells/mL and dispensed into white 96-well plates at 90 μL/well. Subsequent transfections and screens were carried using an Agilent Bravo Automated Liquid Handling Platform. First, the 96-well HiBiT DNA arrays were diluted 25-fold in Opti-MEM (without serum or phenol red) to a final concentration of 0.0004 μg/μL and 20 μL of the diluted DNAs were transferred into new 96-well plates. Next, promoterless carrier DNA (1 μg/μL) was diluted 25-fold (0.04 μg/μL) and then dispensed into the diluted arrays at 20 μL/well. Following brief mixing, Viafect transfection reagent (Promega) diluted 16-fold into Opti-MEM was dispensed into the plates at 40 μL/well. After mixing by pipetting, plates were incubated for 10 min on the pipetting station deck. The DNA-transfection reagent complexes were then added to plates containing cells. To facilitate the screen, 10 μL of DNA-transfection reagent complexes were added in duplicates to the top 4 and bottom 4 rows, resulting in two identical 48-well arrays per plate. Plates with transfected cells were incubated for 18–20 h at 37 °C/5% CO2. A screen of each tracer across the entire library using two different concentrations requires duplicate plates of transfected cells. Depending on the number of tracers being screened, transfections can be scaled up using the same ratios. The next day, for each tracer, four 20× screening solutions in tracer dilution buffer (Promega) were prepared: two duplicates at final concentration of 20 μM and two duplicates at a final concentration of 2 μM. A competing unmodified compound was added to one of each duplicate at a final concentration of 400 μM. The four resulting solutions were diluted 4-fold in Opti-MEM without serum or phenol red to generate 5× solutions (5 µM and 0.5 µM tracer +/− 100 μM competing compound). To screen the library, a BioTek MultiFlo FX liquid dispenser was used to dispense 22.5 µL of tracer solution to the top 4 rows and 22.5 µL tracer + competing compound solution to the 4 bottom rows. Plates were briefly mixed on an orbital shaker and incubated for 1.5 h at room temperature. […]
In general terms: In BRET a luciferase serves as donor, and the signal depends on an acceptor being close.

The target of a further assay is T2, ADRA2B (Homo sapiens, UniProt P18089).
T2 construct: purchased Promega (in-house HiBiT-GPCR construct library, NanoBRET)
T2 sequence (P18089 1-450): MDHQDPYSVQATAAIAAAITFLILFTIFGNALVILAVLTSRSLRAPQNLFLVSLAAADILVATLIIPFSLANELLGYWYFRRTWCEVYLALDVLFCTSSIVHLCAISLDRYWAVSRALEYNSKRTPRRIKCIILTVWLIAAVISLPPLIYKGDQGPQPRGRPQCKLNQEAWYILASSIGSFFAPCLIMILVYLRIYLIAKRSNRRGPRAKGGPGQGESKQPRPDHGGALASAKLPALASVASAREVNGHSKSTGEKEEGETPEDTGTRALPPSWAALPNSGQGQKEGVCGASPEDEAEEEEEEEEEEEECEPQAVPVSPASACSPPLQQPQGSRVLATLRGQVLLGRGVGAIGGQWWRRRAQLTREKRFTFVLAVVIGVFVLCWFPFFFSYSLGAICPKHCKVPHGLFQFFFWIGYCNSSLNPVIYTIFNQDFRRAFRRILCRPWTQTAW
The experiment in a line: NanoBRET screen HiBiT-ADRA2B in HEK293.

The target of the next assay is T3, HTR2A (Homo sapiens, UniProt P28223).
T3 construct: purchased Promega (in-house HiBiT-GPCR construct library, NanoBRET)
Kind of assay: NanoBRET screen HiBiT-HTR2A in HEK293.

A further assay addresses T4, MC4R (Homo sapiens, UniProt P32245).
T4 construct: purchased Promega (in-house HiBiT-GPCR construct library, NanoBRET)
The experiment in a line: NanoBRET screen HiBiT-MC4R in HEK293. The method, then:
as §1, §2

The next assay addresses T5, CXCR6 (Homo sapiens, UniProt O00574).
T5 construct: purchased Promega (in-house HiBiT-GPCR construct library, NanoBRET)
The experiment in a line: NanoBRET screen HiBiT-CXCR6 in HEK293. How it is done: as §1, §2

A further assay has as its target T6, CNR1 (Homo sapiens, UniProt P21554).
T6 construct: purchased Promega (in-house HiBiT-GPCR construct library, NanoBRET)
Kind of assay: NanoBRET screen HiBiT-CNR1 in HEK293. The method, then:
as §1, §2

T6 sequence (P21554 whole entry): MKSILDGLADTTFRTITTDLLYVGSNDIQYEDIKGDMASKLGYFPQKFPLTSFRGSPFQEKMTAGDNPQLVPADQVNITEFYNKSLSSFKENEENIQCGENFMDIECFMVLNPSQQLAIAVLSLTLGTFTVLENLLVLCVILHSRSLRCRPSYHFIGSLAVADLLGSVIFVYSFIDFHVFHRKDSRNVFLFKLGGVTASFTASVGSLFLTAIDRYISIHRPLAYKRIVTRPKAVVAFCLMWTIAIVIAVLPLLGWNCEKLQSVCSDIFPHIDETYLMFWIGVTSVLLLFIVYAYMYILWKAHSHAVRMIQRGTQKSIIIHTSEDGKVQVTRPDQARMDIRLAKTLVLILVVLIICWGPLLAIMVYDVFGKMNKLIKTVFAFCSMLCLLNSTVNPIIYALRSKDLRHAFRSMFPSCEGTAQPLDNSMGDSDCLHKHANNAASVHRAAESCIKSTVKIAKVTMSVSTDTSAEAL
T3 sequence (P28223 whole entry): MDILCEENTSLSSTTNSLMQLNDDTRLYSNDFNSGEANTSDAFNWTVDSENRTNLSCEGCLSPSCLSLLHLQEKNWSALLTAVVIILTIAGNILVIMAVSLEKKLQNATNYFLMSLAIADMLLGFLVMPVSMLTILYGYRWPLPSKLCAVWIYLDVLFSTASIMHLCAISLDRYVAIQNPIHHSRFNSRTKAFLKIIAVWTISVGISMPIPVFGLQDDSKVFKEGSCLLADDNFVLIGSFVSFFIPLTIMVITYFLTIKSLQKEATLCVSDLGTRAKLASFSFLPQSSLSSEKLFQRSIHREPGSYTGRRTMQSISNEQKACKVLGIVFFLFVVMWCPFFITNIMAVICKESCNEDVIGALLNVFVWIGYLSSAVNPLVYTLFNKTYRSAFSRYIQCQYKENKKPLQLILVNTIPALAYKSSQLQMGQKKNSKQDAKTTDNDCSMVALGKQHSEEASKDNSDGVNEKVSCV
T4 sequence (P32245 whole entry): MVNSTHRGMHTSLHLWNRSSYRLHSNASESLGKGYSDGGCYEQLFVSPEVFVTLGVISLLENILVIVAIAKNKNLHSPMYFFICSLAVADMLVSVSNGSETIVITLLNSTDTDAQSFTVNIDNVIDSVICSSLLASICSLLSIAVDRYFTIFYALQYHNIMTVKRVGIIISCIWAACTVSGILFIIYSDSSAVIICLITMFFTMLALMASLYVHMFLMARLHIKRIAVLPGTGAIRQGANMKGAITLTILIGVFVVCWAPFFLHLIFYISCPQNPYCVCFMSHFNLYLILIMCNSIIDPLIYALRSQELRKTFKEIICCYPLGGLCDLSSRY
T5 sequence (O00574 whole entry): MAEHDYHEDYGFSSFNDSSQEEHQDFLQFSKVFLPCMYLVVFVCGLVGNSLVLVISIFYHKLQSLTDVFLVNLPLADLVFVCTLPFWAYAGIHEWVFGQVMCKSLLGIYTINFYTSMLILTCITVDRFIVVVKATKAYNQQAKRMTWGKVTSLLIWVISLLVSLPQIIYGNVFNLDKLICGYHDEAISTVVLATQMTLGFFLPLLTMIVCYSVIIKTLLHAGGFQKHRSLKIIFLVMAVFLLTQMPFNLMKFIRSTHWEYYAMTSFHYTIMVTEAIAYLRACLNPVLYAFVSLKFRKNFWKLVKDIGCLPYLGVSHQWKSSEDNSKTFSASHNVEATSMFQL

As to `O=C(CCOCCOCCOCCOCCNC(=O)CCc1ccc2n1[B-](F)(F)[N+]1=C(c3ccc[nH]3)C=CC1=C2)NCCCN1CCN(C2=Nc3ccccc3Oc3ccc(Cl)cc32)CC1` [Loxapine-a-2-NB590], the “NanoBRET Fold Response” value on TACR3 (TACR3, tracer 0.1μM) was 1.08; at TACR3 (TACR3, tracer 1μM) it was 1.11; at ADRA2B (ADRA2B, tracer 0.1μM), 3.38; on ADRA2B (ADRA2B, tracer 1μM), 5.35; on HTR2A it was 1.71 and 1.28; on MC4R (MC4R, tracer 0.1μM), 1.04. Moreover, the “NanoBRET Fold Response” value at MC4R (MC4R, tracer 1μM) was determined as 1.04; on CXCR6 (CXCR6, tracer 0.1μM), 1.00; on CXCR6 (CXCR6, tracer 1μM), 1.01; on CNR1 (CNR1, tracer 0.1μM), 0.72; on CNR1 (CNR1, tracer 1μM) it was 0.29.
`CCCn1c(=O)c2[nH]c(-c3ccc(OCC(=O)NCCNC(=O)CCOCCNC(=O)c4ccc(CNC(=O)CCc5ccc6n5[B-](F)(F)[N+]5=C(c7ccc[nH]7)C=CC5=C6)cc4)cc3)nc2n(CCC)c1=O` [XAC-3-NB590]: the “NanoBRET Fold Response” value was determined as 1.06 at TACR3 (TACR3, tracer 0.1μM); 1.01 at TACR3 (TACR3, tracer 1μM); 0.91 on ADRA2B (ADRA2B, tracer 0.1μM); 0.95 on ADRA2B (ADRA2B, tracer 1μM); 0.99 at HTR2A (HTR2A, tracer 0.1μM); 1.10 on HTR2A (HTR2A, tracer 1μM). Besides, the “NanoBRET Fold Response” value on MC4R (MC4R, tracer 0.1μM) amounted to 1.02; on MC4R (MC4R, tracer 1μM), 1.04; at CXCR6 (CXCR6, tracer 0.1μM), 1.06; at CXCR6 (CXCR6, tracer 1μM), 1.09; on CNR1 (CNR1, tracer 0.1μM) it was 1.01; on CNR1 (CNR1, tracer 1μM), 1.00.
Turning to `COc1ccccc1N1CCN(CCCCN2C(=O)c3ccc(CNC(=O)CCOCCOCCOCCOCCNC(=O)CCc4ccc5n4[B-](F)(F)[N+]4=C(c6ccc[nH]6)C=CC4=C5)cc3C2=O)CC1` [NAN-190-2-NB590], the “NanoBRET Fold Response” value at ADRA2B (ADRA2B, tracer 0.1μM) was determined as 4.00; on ADRA2B (ADRA2B, tracer 1μM) it was 5.99; on HTR2A, 0.97; on MC4R (MC4R, tracer 0.1μM) it was 0.97; at MC4R (MC4R, tracer 1μM) it was 1.01; on CXCR6 (CXCR6, tracer 0.1μM) it was 0.94. Besides, the “NanoBRET Fold Response” value at CXCR6 (CXCR6, tracer 1μM) is reported as 1.02; at CNR1 (CNR1, tracer 0.1μM) it was 1.02.
For the molecule `COc1ccccc1N1CCN(CCCCN2C(=O)c3ccc(CNC(=O)CCOCCNC(=O)c4ccc(CNC(=O)CCc5ccc6n5[B-](F)(F)[N+]5=C(c7ccc[nH]7)C=CC5=C6)cc4)cc3C2=O)CC1` [NAN-190-3-NB590], the “NanoBRET Fold Response” value at TACR3 (TACR3, tracer 0.1μM) was 0.97; on TACR3 (TACR3, tracer 1μM), 0.96; at ADRA2B (ADRA2B, tracer 0.1μM), 4.24; on ADRA2B (ADRA2B, tracer 1μM), 5.21; on HTR2A, 1.14 and 1.13; on MC4R (MC4R, tracer 0.1μM) it was 1.05. For the same molecule, the “NanoBRET Fold Response” value at MC4R (MC4R, tracer 1μM) came to 0.83; at CXCR6 (CXCR6, tracer 0.1μM), 1.15; at CXCR6 (CXCR6, tracer 1μM), 0.93; on CNR1 (CNR1, tracer 0.1μM) it was 1.10; at CNR1 (CNR1, tracer 1μM), 1.01.
Regarding `CCOC(=O)c1cc(C#N)c(N2CCC(C(=O)NS(=O)(=O)Cc3ccccc3/C=C/C(=O)NCCNC(=O)CCc3ccc4n3[B-](F)(F)[N+]3=C(c5ccc[nH]5)C=CC3=C4)CC2)nc1C` [AZD1283-1-NB590], the “NanoBRET Fold Response” value at TACR3 (TACR3, 0.1μM) amounted to 1.10; on TACR3 (TACR3, 1μM), 1.10; on ADRA2B (ADRA2B, 0.1μM), 1.09; on ADRA2B (ADRA2B, 1μM) it was 1.05; on HTR2A (HTR2A, 0.1μM), 0.96; at HTR2A (HTR2A, 1μM), 1.01. Moreover, the “NanoBRET Fold Response” value is reported as 0.98 at MC4R (MC4R, 0.1μM); 1.01 on MC4R (MC4R, 1μM); 0.89 on CXCR6 (CXCR6, 0.1μM); 0.29 at CXCR6 (CXCR6, 1μM); 0.97 at CNR1 (CNR1, 0.1μM); 0.51 at CNR1 (CNR1, 1μM).
With `COc1ccc2[nH]c(-c3ccc(CNC(=O)CCOCCOCCOCCOCCNC(=O)CCc4ccc5n4[B-](F)(F)[N+]4=C(c6ccc[nH]6)C=CC4=C5)cc3)c(CCNC(C)=O)c2n1` [AzomelatoninICO9-2-NB590], the “NanoBRET Fold Response” value came to 1.23 on TACR3 (0.1μM tracer); 1.00 on TACR3 (1μM tracer); 1.35 on ADRA2B (0.1μM tracer); 1.12 at ADRA2B (1μM tracer); 0.92 on HTR2A (0.1μM tracer); 1.02 on HTR2A (1μM tracer). Besides, the “NanoBRET Fold Response” value on MC4R (0.1μM tracer) is 0.92; at MC4R (1μM tracer) it was 0.98; at CXCR6 (0.1μM tracer), 0.98; at CXCR6 (1μM tracer) it was 1.16; at CNR1 (0.1μM tracer), 0.99; on CNR1 (1μM tracer), 1.02.
Consider `N#CN/C(=N\CCNC(=O)c1ccc(N)cc1)NCCCOc1cccc(CN2CCCCC2)c1` [Aminopotentidine (unmodified)], for which the “NanoBRET Fold Response” value on ADRA2B (ADRA2B, other tracers/Aminopotentidine (unmodified), 0.1μM) was 1.49; at ADRA2B (ADRA2B, other tracers/Aminopotentidine (unmodified), 1μM), 1.60; at HTR2A (HTR2A, other tracers/Aminopotentidine (unmodified), 0.1μM) it was 1.10; on HTR2A (HTR2A, other tracers/Aminopotentidine (unmodified), 1μM), 1.07.
